Measurements published in ChEMBL document CHEMBL1201862, “PubChem BioAssay data set” (2004).
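These data come from cells grown in 96-well plates and exposed to compound for 48 hours at five concentrations. GI50 is the concentration that inhibits growth by half.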 Activity calls are given as the source filed them. No stated cut-off is given here; in the data, active = GI50 up to about 1.1 µM and inactive = higher.

Key:
Assay in all cases: inhibition of tumour cell growth, NCI panel, 48 h
RPMI-8226 = system: RPMI-8226
ACHN = system: ACHN
SF-295 = system: SF-295
HT-29 = system: HT-29
NCI-H226 = system: NCI-H226
SK-MEL-28 = system: SK-MEL-28
TK-10 = system: TK-10
M14 = system: M14
HCT-15 = system: HCT-15
SK-MEL-2 = system: SK-MEL-2
KM12 = system: KM12
K562 = system: K562
BT-549 = system: BT-549
LOX IMVI = system: LOX IMVI
Malme-3M = system: Malme-3M
786-0 = system: 786-0
SW-620 = system: SW-620
CCRF-CEM = system: CCRF-CEM
CAKI-1 = system: CAKI-1
MDA-MB-231 = system: MDA-MB-231
OVCAR-8 = system: OVCAR-8
A549 = system: A549
MOLT-4 = system: MOLT-4
U-251 = system: U-251
OVCAR-4 = system: OVCAR-4
NCI-H522 = system: NCI-H522
COLO 205 = system: COLO 205
SF-539 = system: SF-539
SNB-19 = system: SNB-19
HOP-62 = system: HOP-62
UACC-62 = system: UACC-62
HCT-116 = system: HCT-116
NCI/ADR-RES = system: NCI/ADR-RES
MDA-MB-435 = system: MDA-MB-435
SK-OV-3 = system: SK-OV-3
UO-31 = system: UO-31
RXF 393 = system: RXF 393
OVCAR-3 = system: OVCAR-3
NCI-H23 = system: NCI-H23
PC-3 = system: PC-3
SNB-75 = system: SNB-75
T47D = system: T47D
HOP-92 = system: HOP-92
NCI-H460 = system: NCI-H460
IGROV-1 = system: IGROV-1
MCF7 = system: MCF7
HCC 2998 = system: HCC 2998
SN12C = system: SN12C
OVCAR-5 = system: OVCAR-5
Hs-578T = system: Hs-578T
SF-268 = system: SF-268
UACC-257 = system: UACC-257
SK-MEL-5 = system: SK-MEL-5
MDA-N = system: MDA-N
EKVX = system: EKVX
HL-60 = system: HL-60
DU-145 = system: DU-145
SR = system: SR
A498 = system: A498

SMILES: O=[N+]([O-])c1cccc2nc3ccccc3c(NCCCNc3c4ccccc4nc4cccc([N+](=O)[O-])c34)c12
- GI50 (RPMI-8226): < 0.01 µM (active)
- GI50 (ACHN): 0.0121 µM (active)
- GI50 (SF-295): 0.037 µM (active)
- GI50 (HT-29): < 0.01 µM (active)
- GI50 (NCI-H226): 0.0697 µM (active)
- GI50 (SK-MEL-28): 0.0505 µM (active)
- GI50 (TK-10): 0.02 µM (active)
- GI50 (M14): < 0.0177 µM (active)
- GI50 (HCT-15): < 0.0138 µM
- GI50 (SK-MEL-2): 0.035 µM (active)
- GI50 (KM12): < 0.013 µM (active)
- GI50 (K562): < 0.01 µM (active)
- GI50 (BT-549): 0.0855 µM (active)
- GI50 (LOX IMVI): 0.0977 µM (active)
- GI50 (Malme-3M): 0.0378 µM (active)
- GI50 (786-0): 0.0146 µM (active)
- GI50 (SW-620): < 0.01 µM (active)
- GI50 (CCRF-CEM): 0.0251 µM (active)
- GI50 (CAKI-1): < 0.0215 µM (active)
- GI50 (MDA-MB-231): < 0.0122 µM (active)
- GI50 (OVCAR-8): < 0.0139 µM (active)
- GI50 (A549): < 0.0175 µM (active)
- GI50 (MOLT-4): 0.017 µM (active)
- GI50 (U-251): 0.0171 µM (active)
- GI50 (OVCAR-4): 0.0635 µM (active)
- GI50 (NCI-H522): 0.0146 µM (active)
- GI50 (COLO 205): 0.0102 µM (active)
- GI50 (SF-539): 0.0161 µM (active)
- GI50 (SNB-19): 0.0137 µM (active)
- GI50 (HOP-62): < 0.0156 µM (active)
- GI50 (UACC-62): 0.0513 µM (active)
- GI50 (HCT-116): 0.0103 µM (active)
- GI50 (NCI/ADR-RES): 0.249 µM (active)
- GI50 (MDA-MB-435): 0.0167 µM (active)
- GI50 (SK-OV-3): 0.0982 µM (active)
- GI50 (UO-31): 0.0472 µM (active)
- GI50 (RXF 393): 0.0177 µM (active)
- GI50 (OVCAR-3): < 0.0258 µM (active)
- GI50 (NCI-H23): 0.0182 µM (active)
- GI50 (PC-3): 0.0343 µM (active)
- GI50 (SNB-75): 0.0328 µM (active)
- GI50 (T47D): 0.0537 µM (active)
- GI50 (HOP-92): < 0.01 µM (active)
- GI50 (NCI-H460): < 0.01 µM (active)
- GI50 (IGROV-1): 0.128 µM (active)
- GI50 (MCF7): 0.0151 µM (active)
- GI50 (HCC 2998): 0.0157 µM (active)
- GI50 (SN12C): < 0.0169 µM (active)
- GI50 (OVCAR-5): 0.0435 µM (active)
- GI50 (Hs-578T): 0.0162 µM (active)
- GI50 (SF-268): < 0.01 µM (active)
- GI50 (UACC-257): 0.0556 µM (active)
- GI50 (SK-MEL-5): 0.0163 µM (active)
- GI50 (MDA-N): 0.0123 µM (active)
- GI50 (EKVX): 0.0312 µM (active)
- GI50 (HL-60): 0.12 µM (active)
- GI50 (DU-145): < 0.0164 µM (active)

SMILES: COc1ccc(-c2cc(-c3ccc(Nc4ccnc5cc(C(F)(F)F)ccc45)cc3)nc(N)c2C#N)c2ccccc12
- GI50 (RPMI-8226): > 100 µM (inactive)
- GI50 (ACHN): > 100 µM (inactive)
- GI50 (SF-295): > 100 µM (inactive)
- GI50 (TK-10): > 100 µM (inactive)
- GI50 (M14): > 100 µM (inactive)
- GI50 (HCT-15): > 100 µM
- GI50 (SK-MEL-2): > 100 µM (inactive)
- GI50 (KM12): 68.5 µM (inactive)
- GI50 (BT-549): 36.6 µM (inactive)
- GI50 (LOX IMVI): 29.4 µM (inactive)
- GI50 (Malme-3M): > 100 µM (inactive)
- GI50 (786-0): > 100 µM (inactive)
- GI50 (SW-620): > 100 µM (inactive)
- GI50 (CAKI-1): > 100 µM (inactive)
- GI50 (MDA-MB-231): > 100 µM (inactive)
- GI50 (A549): > 100 µM (inactive)
- GI50 (MOLT-4): 53.3 µM (inactive)
- GI50 (U-251): > 100 µM (inactive)
- GI50 (OVCAR-4): > 100 µM (inactive)
- GI50 (COLO 205): > 100 µM (inactive)
- GI50 (SF-539): > 100 µM (inactive)
- GI50 (SNB-19): > 100 µM (inactive)
- GI50 (HOP-62): > 100 µM (inactive)
- GI50 (UACC-62): > 100 µM (inactive)
- GI50 (HCT-116): 97.9 µM (inactive)
- GI50 (NCI/ADR-RES): > 100 µM (inactive)
- GI50 (MDA-MB-435): > 100 µM (inactive)
- GI50 (SK-OV-3): > 100 µM (inactive)
- GI50 (UO-31): > 100 µM (inactive)
- GI50 (RXF 393): > 100 µM (inactive)
- GI50 (OVCAR-3): > 100 µM (inactive)
- GI50 (NCI-H23): > 100 µM (inactive)
- GI50 (PC-3): > 100 µM (inactive)
- GI50 (SNB-75): > 100 µM (inactive)
- GI50 (T47D): > 100 µM (inactive)
- GI50 (HOP-92): > 100 µM (inactive)
- GI50 (NCI-H460): > 100 µM (inactive)
- GI50 (MCF7): 97.9 µM (inactive)
- GI50 (SR): 32.5 µM (inactive)
- GI50 (A498): > 100 µM (inactive)
- GI50 (HCC 2998): > 100 µM (inactive)
- GI50 (OVCAR-5): > 100 µM (inactive)
- GI50 (Hs-578T): 65.2 µM (inactive)
- GI50 (SF-268): > 100 µM (inactive)
- GI50 (SK-MEL-5): > 100 µM (inactive)
- GI50 (EKVX): > 100 µM (inactive)
- GI50 (HL-60): 70.3 µM (inactive)
- GI50 (DU-145): > 100 µM (inactive)

SMILES: CCOc1ccc(C(=O)/C=C2/Nc3ccccc3N/C2=C/C(=O)c2ccc(OCC)cc2)cc1
- GI50 (RPMI-8226): > 100 µM (inactive)
- GI50 (ACHN): > 100 µM (inactive)
- GI50 (SF-295): > 100 µM (inactive)
- GI50 (HT-29): > 100 µM (inactive)
- GI50 (NCI-H226): > 100 µM (inactive)
- GI50 (SK-MEL-28): > 100 µM (inactive)
- GI50 (TK-10): > 100 µM (inactive)
- GI50 (M14): > 100 µM (inactive)
- GI50 (HCT-15): 96.4 µM
- GI50 (SK-MEL-2): > 100 µM (inactive)
- GI50 (K562): > 100 µM (inactive)
- GI50 (BT-549): > 100 µM (inactive)
- GI50 (LOX IMVI): > 100 µM (inactive)
- GI50 (Malme-3M): 41.7 µM (inactive)
- GI50 (786-0): 80 µM (inactive)
- GI50 (SW-620): > 100 µM (inactive)
- GI50 (CCRF-CEM): 29.7 µM (inactive)
- GI50 (CAKI-1): > 100 µM (inactive)
- GI50 (MDA-MB-231): > 100 µM (inactive)
- GI50 (A549): > 100 µM (inactive)
- GI50 (MOLT-4): 81.3 µM (inactive)
- GI50 (U-251): > 100 µM (inactive)
- GI50 (OVCAR-4): 72.3 µM (inactive)
- GI50 (NCI-H522): > 100 µM (inactive)
- GI50 (COLO 205): > 100 µM (inactive)
- GI50 (SF-539): > 100 µM (inactive)
- GI50 (SNB-19): > 100 µM (inactive)
- GI50 (HOP-62): > 100 µM (inactive)
- GI50 (UACC-62): > 100 µM (inactive)
- GI50 (HCT-116): 78.2 µM (inactive)
- GI50 (MDA-MB-435): > 100 µM (inactive)
- GI50 (SK-OV-3): > 100 µM (inactive)
- GI50 (UO-31): > 100 µM (inactive)
- GI50 (RXF 393): > 100 µM (inactive)
- GI50 (OVCAR-3): > 100 µM (inactive)
- GI50 (NCI-H23): > 100 µM (inactive)
- GI50 (PC-3): > 100 µM (inactive)
- GI50 (T47D): > 100 µM (inactive)
- GI50 (HOP-92): > 100 µM (inactive)
- GI50 (NCI-H460): 85.3 µM (inactive)
- GI50 (IGROV-1): 57.9 µM (inactive)
- GI50 (MCF7): > 100 µM (inactive)
- GI50 (SR): 3.43 µM (inactive)
- GI50 (A498): > 100 µM (inactive)
- GI50 (HCC 2998): > 100 µM (inactive)
- GI50 (SN12C): > 100 µM (inactive)
- GI50 (OVCAR-5): > 100 µM (inactive)
- GI50 (Hs-578T): 37.6 µM (inactive)
- GI50 (SF-268): > 100 µM (inactive)
- GI50 (UACC-257): > 100 µM (inactive)
- GI50 (SK-MEL-5): > 100 µM (inactive)
- GI50 (MDA-N): > 100 µM (inactive)
- GI50 (EKVX): > 100 µM (inactive)
- GI50 (HL-60): > 100 µM (inactive)
- GI50 (DU-145): > 100 µM (inactive)
